In patent US12077503B2, “Substituted cyclic amides and their use as herbicides” (FMC CORPORATION, priority 2015, dated 2024):

Assays:
Assay type in all cases: in vivo
[1] = tested on: velvetleaf (Abutilon theophrasti); experiment: Test G Post-Emergence Protocol; settings: Abutilon theophrasti, post-emergence, 312 h, read-out: Velvetleaf damage rating; for pest or weed control at 15.625 g/ha: 15.625 g ai/ha, evaluated after 13 days (100=total damage to plant; 0=no damage to plant); for pest or weed control at 62.5 g/ha: 62.5 g ai/ha; for pest or weed control at 62.5 g/ha / pest or weed control at 250 g/ha: evaluated after 13 days, 100=total damage to plant, 0=no damage to plant; for pest or weed control at 250 g/ha: 250 g ai/ha
Summary of the method: (§1)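 Foliar application was made 8 days after sowing, using an aqueous spray of the active in acetone/water (50:50) with 0.5% Tween 20, at doses of 15.625, 62.5 or 250 g/ha. Injury was assessed 13 days later, where 100 meant the plant was fully damaged.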

[2] = tested on: redroot pigweed (Amaranthus retroflexus); experiment: Test G Post-Emergence Protocol; settings: Amaranthus retroflexus, post-emergence, 312 h, read-out: Pigweed, Redroot damage rating; for pest or weed control at 15.625 g/ha: 15.625 g ai/ha, evaluated after 13 days (100=total damage to plant; 0=no damage to plant); for pest or weed control at 62.5 g/ha: 62.5 g ai/ha; for pest or weed control at 62.5 g/ha / pest or weed control at 250 g/ha: evaluated after 13 days, 100=total damage to plant, 0=no damage to plant; for pest or weed control at 250 g/ha: 250 g ai/ha
Summary of the method: as §1

[3] = tested on: giant foxtail (Setaria faberi); experiment: Test G Post-Emergence Protocol; settings: Setaria faberi, post-emergence, 312 h, read-out: Foxtail, Giant damage rating; for pest or weed control at 15.625 g/ha: 15.625 g ai/ha, evaluated after 13 days (100=total damage to plant; 0=no damage to plant); for pest or weed control at 62.5 g/ha: 62.5 g ai/ha; for pest or weed control at 62.5 g/ha / pest or weed control at 250 g/ha: evaluated after 13 days, 100=total damage to plant, 0=no damage to plant; for pest or weed control at 250 g/ha: 250 g ai/ha
Summary of the method: as §1

[4] = tested on: ivy-leaved morning glory (Ipomoea hederacea); experiment: Test G Post-Emergence Protocol; settings: Ipomoea, post-emergence, 312 h, read-out: Morningglory, Ivy-leaved damage rating; for pest or weed control at 15.625 g/ha: 15.625 g ai/ha, evaluated after 13 days (100=total damage to plant; 0=no damage to plant); for pest or weed control at 62.5 g/ha: 62.5 g ai/ha; for pest or weed control at 62.5 g/ha / pest or weed control at 250 g/ha: evaluated after 13 days, 100=total damage to plant, 0=no damage to plant; for pest or weed control at 250 g/ha: 250 g ai/ha
Summary of the method: as §1

[5] = tested on: barnyardgrass (Echinochloa crus-galli); experiment: Test G Post-Emergence Protocol; settings: Echinochloa crus-galli, post-emergence, 312 h, read-out: Barnyardgrass damage rating; for pest or weed control at 15.625 g/ha: 15.625 g ai/ha, evaluated after 13 days (100=total damage to plant; 0=no damage to plant); for pest or weed control at 62.5 g/ha: 62.5 g ai/ha; for pest or weed control at 62.5 g/ha / pest or weed control at 250 g/ha: evaluated after 13 days, 100=total damage to plant, 0=no damage to plant; for pest or weed control at 250 g/ha: 250 g ai/ha
Summary of the method: as §1

[6] = tested on: corn (Zea mays); experiment: Test G Post-Emergence Protocol; settings: Zea mays, post-emergence, 312 h, read-out: Corn damage rating; for plant injury at 15.625 g/ha: 15.625 g ai/ha, evaluated after 13 days (100=total damage to plant; 0=no damage to plant); for plant injury at 62.5 g/ha: 62.5 g ai/ha; for plant injury at 62.5 g/ha / plant injury at 250 g/ha: evaluated after 13 days, 100=total damage to plant, 0=no damage to plant; for plant injury at 250 g/ha: 250 g ai/ha
Summary of the method: as §1

[7] = tested on: velvetleaf (Abutilon theophrasti); experiment: Test G Pre-Emergence Protocol; settings: Abutilon theophrasti, pre-emergence, 312 h, evaluated after 13 days; for pest or weed control at 15.625 g/ha: 15.625 g ai/ha; for pest or weed control at 15.625 g/ha / pest or weed control at 250 g/ha: read-out: Velvetleaf damage rating (100=total damage to plant; 0=no damage to plant); for pest or weed control at 62.5 g/ha: 62.5 g ai/ha, 100=total damage to plant, 0=no damage to plant, read-out: Velvetleaf damage rating; for pest or weed control at 250 g/ha: 250 g ai/ha
Summary of the method: (§2)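 Spraying took place one day after sowing, at 15.625, 62.5 or 250 g/ha, using an acetone/water (50:50) spray solution containing 0.5% Tween 20. Plants were kept under glasshouse conditions (24/16 °C, 14 h light, 65% humidity, watered twice daily), and injury was rated 0–100 at day 13.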

[8] = tested on: redroot pigweed (Amaranthus retroflexus); experiment: Test G Pre-Emergence Protocol; settings: Amaranthus retroflexus, pre-emergence, 312 h, evaluated after 13 days; for pest or weed control at 15.625 g/ha: 15.625 g ai/ha; for pest or weed control at 15.625 g/ha / pest or weed control at 250 g/ha: read-out: Pigweed, Redroot damage rating (100=total damage to plant; 0=no damage to plant); for pest or weed control at 62.5 g/ha: 62.5 g ai/ha, 100=total damage to plant, 0=no damage to plant, read-out: Pigweed, Redroot damage rating; for pest or weed control at 250 g/ha: 250 g ai/ha
Summary of the method: as §2

[9] = tested on: giant foxtail (Setaria faberi); experiment: Test G Pre-Emergence Protocol; settings: Setaria faberi, pre-emergence, 312 h, evaluated after 13 days; for pest or weed control at 15.625 g/ha: 15.625 g ai/ha; for pest or weed control at 15.625 g/ha / pest or weed control at 250 g/ha: read-out: Foxtail, Giant damage rating (100=total damage to plant; 0=no damage to plant); for pest or weed control at 62.5 g/ha: 62.5 g ai/ha, 100=total damage to plant, 0=no damage to plant, read-out: Foxtail, Giant damage rating; for pest or weed control at 250 g/ha: 250 g ai/ha
Summary of the method: as §2

[10] = tested on: ivy-leaved morning glory (Ipomoea hederacea); experiment: Test G Pre-Emergence Protocol; settings: Ipomoea, pre-emergence, 312 h, evaluated after 13 days; for pest or weed control at 15.625 g/ha: 15.625 g ai/ha; for pest or weed control at 15.625 g/ha / pest or weed control at 250 g/ha: read-out: Morningglory, Ivy-leaved damage rating (100=total damage to plant; 0=no damage to plant); for pest or weed control at 62.5 g/ha: 62.5 g ai/ha, 100=total damage to plant, 0=no damage to plant, read-out: Morningglory, Ivy-leaved damage rating; for pest or weed control at 250 g/ha: 250 g ai/ha
Summary of the method: as §2

[11] = tested on: barnyardgrass (Echinochloa crus-galli); experiment: Test G Pre-Emergence Protocol; settings: Echinochloa crus-galli, pre-emergence, 312 h, evaluated after 13 days; for pest or weed control at 15.625 g/ha: 15.625 g ai/ha; for pest or weed control at 15.625 g/ha / pest or weed control at 250 g/ha: read-out: Barnyardgrass damage rating (100=total damage to plant; 0=no damage to plant); for pest or weed control at 62.5 g/ha: 62.5 g ai/ha, 100=total damage to plant, 0=no damage to plant, read-out: Barnyardgrass damage rating; for pest or weed control at 250 g/ha: 250 g ai/ha
Summary of the method: as §2

[12] = tested on: corn (Zea mays); experiment: Test G Pre-Emergence Protocol; settings: Zea mays, pre-emergence, 312 h, evaluated after 13 days; for plant injury at 15.625 g/ha: 15.625 g ai/ha; for plant injury at 15.625 g/ha / plant injury at 250 g/ha: read-out: Corn damage rating (100=total damage to plant; 0=no damage to plant); for plant injury at 62.5 g/ha: 62.5 g ai/ha, 100=total damage to plant, 0=no damage to plant, read-out: Corn damage rating; for plant injury at 250 g/ha: 250 g ai/ha
Summary of the method: as §2

| Compound | pest or weed control at 15.625 g/ha [1] | pest or weed control at 62.5 g/ha [1] | pest or weed control at 250 g/ha [1] | pest or weed control at 15.625 g/ha [2] | pest or weed control at 62.5 g/ha [2] | pest or weed control at 250 g/ha [2] | pest or weed control at 15.625 g/ha [3] | pest or weed control at 62.5 g/ha [3] | pest or weed control at 15.625 g/ha [4] | pest or weed control at 62.5 g/ha [4] | pest or weed control at 250 g/ha [4] | pest or weed control at 15.625 g/ha [5] | pest or weed control at 62.5 g/ha [5] | pest or weed control at 250 g/ha [5] | plant injury at 15.625 g/ha [6] | plant injury at 62.5 g/ha [6] | plant injury at 250 g/ha [6] | pest or weed control at 15.625 g/ha [7] | pest or weed control at 62.5 g/ha [7] | pest or weed control at 250 g/ha [7] | also measured |
| --- | --- | --- | --- | --- | --- | --- | --- | --- | --- | --- | --- | --- | --- | --- | --- | --- | --- | --- | --- | --- | --- |
| C=C(C)c1ccccc1NC(=O)[C@H]1C(=O)N(C)C[C@@H]1c1cccc(C(F)(F)F)c1 (racemic) [Compound 1736] | 0% | 0% | 0% | 0% | 0% | 0% | 30% | 80% | 0% | 0% | 40% | 0% | 30% | 70% | 0% | 0% | 70% | 0% | 10% | 10% | pest or weed control at 250 g/ha [3]: 80%; pest or weed control at 15.625 g/ha [8]: 0%; pest or weed control at 62.5 g/ha [8]: 20%; pest or weed control at 250 g/ha [8]: 10%; pest or weed control at 15.625 g/ha [9]: 80%; pest or weed control at 62.5 g/ha [9]: 90%; pest or weed control at 250 g/ha [9]: 90%; pest or weed control at 15.625 g/ha [10]: 0%; pest or weed control at 62.5 g/ha [10]: 0%; pest or weed control at 250 g/ha [10]: 0%; pest or weed control at 15.625 g/ha [11]: 0%; pest or weed control at 62.5 g/ha [11]: 60%; pest or weed control at 250 g/ha [11]: 90%; plant injury at 15.625 g/ha [12]: 0%; plant injury at 62.5 g/ha [12]: 0%; plant injury at 250 g/ha [12]: 60% |
| COc1ncc([C@@H]2CN(C)C(=O)[C@H]2C(=O)Nc2cccc(F)c2F)cc1Cl (racemic) [Compound 1755] | 10% | 30% | 60% | 10% | 20% | 30% | 70% | 80% | 60% | 70% | 70% | 60% | 70% | 80% | 10% | 80% | 80% | 0% | 20% | 70% | pest or weed control at 15.625 g/ha [8]: 0%; pest or weed control at 62.5 g/ha [8]: 40%; pest or weed control at 250 g/ha [8]: 70%; pest or weed control at 15.625 g/ha [9]: 80%; pest or weed control at 62.5 g/ha [9]: 90%; pest or weed control at 250 g/ha [9]: 90%; pest or weed control at 15.625 g/ha [10]: 0%; pest or weed control at 62.5 g/ha [10]: 20%; pest or weed control at 250 g/ha [10]: 80%; pest or weed control at 15.625 g/ha [11]: 70%; pest or weed control at 62.5 g/ha [11]: 80%; pest or weed control at 250 g/ha [11]: 90%; plant injury at 15.625 g/ha [12]: 20%; plant injury at 62.5 g/ha [12]: 60%; plant injury at 250 g/ha [12]: 80% |
| CC(C)OC(=O)c1cc([C@H]2CN(C)C(=O)[C@@H]2C(=O)Nc2ccccc2F)ccc1F (racemic) [Compound 1730] | 0% | 0% | 0% | 0% | 0% | 0% | 0% | 20% | 0% | 0% | 0% | 0% | 40% | 80% | 0% | 0% | 0% | 0% | 0% | 0% | pest or weed control at 250 g/ha [3]: 80%; pest or weed control at 15.625 g/ha [8]: 0%; pest or weed control at 62.5 g/ha [8]: 0%; pest or weed control at 250 g/ha [8]: 0%; pest or weed control at 15.625 g/ha [9]: 20%; pest or weed control at 62.5 g/ha [9]: 50%; pest or weed control at 250 g/ha [9]: 90%; pest or weed control at 15.625 g/ha [10]: 0%; pest or weed control at 62.5 g/ha [10]: 0%; pest or weed control at 250 g/ha [10]: 0%; pest or weed control at 15.625 g/ha [11]: 0%; pest or weed control at 62.5 g/ha [11]: 10%; pest or weed control at 250 g/ha [11]: 70%; plant injury at 15.625 g/ha [12]: 0%; plant injury at 62.5 g/ha [12]: 0%; plant injury at 250 g/ha [12]: 0% |
